Laboratory results: patent publication US8409550B2, “Method for treating skin with retinoids and retinoid boosters” (Unilever Home & Personal Care, USA, Division of Conopco, …, priority 2000, dated 2013)
Several values for one entry are separate records, joined by “and”; a condition that tells them apart may be missing. Equal values may be shown once.

Columns and labels:
[1] = tested on: transglutaminase (TGase I); assay: Transglutaminase (Tgase) ELISA assay in cultured keratinocytes with retinol and boosters; type: cell-based, human; details: for TG as % C, Compd 3: Compound 3 alone; for TG as % C, Compd 3 / TG as % C Compd 2 / TG as % C Compd 1: concentration one log below IC20; for Tgase levels (Mean): with 10^-7 M retinol
Method: For this reason, a transalutaminase (Tgase) assay was utilised.
Thus TGase I is a useful marker of epidermal keratinocyte differentiation with high TGase I levels indicating a more differentiated state. An ELISA based TGase I assay, using a TGase I antibody, was used to assess the state of differentiation of the cultured keratinocytes in the examples that follow.
Keratinocytes (cultured as described above) were plated in 96 well plates at a density of 4,000-5,000 cells per well in 200 μl media. After incubation for two to three days, or until cells are ˜50% confluent, the media was changed to media containing test compounds (five replicates per test). The cells were cultured for a further 96 hours after which time the media was aspirated and the plates stored at −70° C. Plates were removed from the freezer, and the cells were washed twice with 200 μl of 1×PBS. The cells were incubated for one hour at room temperature (R/T) with TBS/5% BSA (wash buffer, bovine serum albumin). Next the TGase primary antibody was added: 50 μl of monoclonal anti-Tgase I Ab B.C. diluted 1:2000 in wash buffer. The primary antibody was incubated for 2 hours at 37° C. and then rinsed 6× with wash buffer. Cells were then incubated with 50 μl of secondary antibody (Fab fragment, peroxidase conjugated anti-mouse IgG obtaining from Amersham) diluted 1:4,000 in wash buffer for two hours at 37° C., then rinsed three times with wash buffer. Following the rinse with washing buffer, the cells were rinsed 3× with PBS. For colourimetric development, the cells were incubated with 100 μl substrate solution (4 mg o-phenylenediamine and 3.3 μl 30% H2O2 in 10 ml 0.1M citrate buffer pH 5.0) for exactly five minutes, R/T, in darkness (under aluminum foil). The reaction was stopped by the addition of 50 μl 4 N H2SO4. […] Out of the five replicates, four were treated with both antibodies, the fifth one was use as a Tgase background control. Tgase levels were determined and expressed as percentage control.
A suspension of keratinocytes was prepared at a concentration of 3000 cells/200 μl/well in KGM medium (Used 3×10^5 cells/12 ml media in each microtitre plate)
200 μl of the keratinocyte suspension was transferred into each of the inner 60 wells only.
Each plate was incubated at 37° C. and 5% CO2 for 3 days or until cells are ˜50% confluent.
Stock solutions of the samples were prepared in DMSO.
The samples were diluted to desired concentration with the final assay concentration of DMSO being 0.1%.

Retinol Dehydrogenase = assay: Assay for retinol dehydrogenase activity, rat liver microsomes (to identify B2); type: biochemical; details: test compound final 100 μM
Method: 2.2 Isolation of Rat Liver Microsomes (4)
The resulting homogenate was successively centrifuged for 30 min. at 10,000 g, 30 min. at 20,000 g, and 15 min. at 30,000 g, and the resulting supernatant was ultra-centrifuged for 80 min. at 105,000 g. […] Protein concentrations were determined as described above.
2.4 Assay for Retinol Dehydrogenase Activity (to Identify B2)
The following stock solutions were prepared:
50 mM KH2PO4, pH 7.4 buffer, sterile filtered.
10 mM all trans Retinol (Sigma 87632) in DMSO.
200 mM Nicotinamide adenine dinucleotide phosphate, sodium salt (NADP) (Sigma N0505) in sterile water.
40 mM test compound in appropriate solvent (water, buffer, ethanol, chloroform or DMSO).
1:10 dilution of rat liver Microsomes in 50 mM KH2PO4, pH 7.4 buffer (4 μg/μl).
In a two-dram glass vial with screw cap, the following were added in order:
Buffer to give a final volume of 400 μl
25 μl diluted Microsomes (final=100 μg)—boiled Microsomes were used for controls and regular Microsomes for test samples.
4 μl of 200 mM NADP (final=2 mM)
1 μl of 40 mM test compound (final=100 μM)
8 μl of 10 mM retinol (final=200 μM)
The vials were incubated in a 37° C. shaking water bath for 45 minutes. 500 μl ice-cold ethanol was added to each vial to quench the reaction. The retinoids were extracted twice with ice cold hexane (2.7 ml per extraction). […]

Retinal Reductase = assay: Assay for retinal reductase activity, rat liver microsomes (to identify B3); type: biochemical; details: test compound final 100 μM
Method: 2.5 Assay for Retinal Reductase Activity (to Identify B3)
All stock solution were prepared as above with the following substitutions:
10 mM all trans Retinaldehyde (Sigma R2500) in DMSO—instead of retinol.
In a two-dram glass vial with screw cap, add the following in order:
25 μl diluted Microsomes (final=100 μg)—use boiled Microsomes for controls and regular Microsomes for test samples.
4 μl of 200 mM NADPH (final=2 mM)
Follow the same incubation and extraction procedure as detailed above.
Samples for retinoid quantitation by HPLC were prepared by dissolving the residue in each vial with 100 μL of methanol. […] Aliquots of 60 μL were injected immediately and analysed for retinoid content.
This system consisted of a 20 mins. linear gradient from 68:32 (v/v) methanol/water containing 10 mM ammonium acetate to 4:1(v/v) methanol:dichloromethane followed by a 5 mins. hold at a flow race of 1 mL/min. The column eluate was monitored from 300 nm to 400 nm.

[2] = in the presence of 10^-7M retinol

Compound: Sphingomyelin
- TG as % C, Compd 3 [1, 2]: 60 % C
- Tgase levels (Mean) ([1]; booster 1.0E−05 Molar): 77.8 % of control
- Tgase levels (Mean) ([1]; booster 1.1E−06 Molar): 98.8 % of control
- Tgase levels (Mean) ([1]; booster 1.23E−07 Molar): 70.0 % of control
- Tgase levels (Mean) ([1]; booster 1.65E−09 Molar): 68.4 % of control
- Tgase levels (Mean) ([1]; booster 3.0E−05 Molar): 45 % of control
- Tgase levels (Mean) ([1]; booster 3.29E−10 Molar): 69.2 % of control
- Tgase levels (Mean) ([1]; booster 3.33E−06 Molar): 76.4 % of control
- Tgase levels (Mean) ([1]; booster 3.73E−07 Molar): 91.6 % of control
- Tgase levels (Mean) ([1]; booster 4.10E−08 Molar): 74.6 % of control
- Tgase levels (Mean) ([1]; booster 8.2E−08 Molar): 115.2 % of control
- TG as % C Compd 2 ([1]; compound 2 alone, with retinol): 84 % C and 98 % C
- % Increase Retinol Dehydrogenase (Retinol Dehydrogenase): 26% increase

Compound: Phosphatidyl Choline
- TG as % C Compd 1 ([1]; Compound 1 alone, in the presence of 10^-7M retinol): 88 % C
- TG as % C Compd 2 ([1]; Compound 2 alone, in the presence of 10^-7M retinol): 88 % C
- TG as % C, Compd 3 [1, 2]: 88 % C
- Tgase levels (Mean) ([1]; booster 1.2E−08 Molar): 159 % of control
- Tgase levels (Mean) ([1]; booster 1.47E−05 Molar): 120.3 % of control
- Tgase levels (Mean) ([1]; booster 1.63E−06 Molar): 98.8 % of control
- Tgase levels (Mean) ([1]; booster 1.8E−07 Molar): 75.9 % of control
- Tgase levels (Mean) ([1]; booster 2.4E−09 Molar): 85.5 % of control
- Tgase levels (Mean) ([1]; booster 4.4E−05 Molar): 90.9 % of control
- Tgase levels (Mean) ([1]; booster 4.89E−06 Molar): 70.1 % of control
- Tgase levels (Mean) ([1]; booster 5.43E−07 Molar): 86.7 % of control
- Tgase levels (Mean) ([1]; booster 6.0E−08 Molar): 87.8 % of control
- TG as % C Compd 1 ([1]; compound 1 alone, with retinol): 98 % C
- TG as % C Compd 2 ([1]; compound 2 alone, with retinol, listed as Phospahtidylcholine): 97 % C
- TG as % C Compd 2 ([1]; compound 2 alone, with retinol, listed as Phosphatidyl choline): 98 % C
- TG as % C Compd 2 ([1]; compound 2 alone, with retinol, listed as Phosphatidylcholine): 97 % C
- % Increase Retinol Dehydrogenase (Retinol Dehydrogenase): 21% increase

Compound: CC1(C)[C@@H](OC(=O)CCC(=O)O)CC[C@]2(C)[C@H]3C(=O)C=C4[C@@H]5C[C@@](C)(C(=O)O)CC[C@]5(C)CC[C@@]4(C)[C@]3(C)CC[C@@H]12 [Carbenoxolone, reference compound]
- TG as % C, Compd 3 [1, 2]: 88 % C
- IC20 ([1]; IC20 (80% of control), compound tested individually in the presence of 10^-7 M retinol): 200 nM
- TG as % C Compd 2 ([1]; compound 2 alone, with retinol): 164 % C
- % Inhibition Retinal Reductase (Retinal Reductase): 26% +/− 2
